The source of these data is patent US20220383986A1, “Complex System for Contextual Spectrum Mask Generation Based on Quantitative Imaging” (The Board of Trustees of the University of Illinois, priority 2021, published 2022).

The test system of test [1] is CHO cells. Kind of test: time-lapse SLIM recording of CHO cells with and without staurosporine. The following applies: 1 μM staurosporine in medium, measured for 10 hours, 37° C. and 5% CO2. Format: cell-based, Chinese hamster.
Experimental: CHO cells were plated on a glass bottom 6-well plate for optimal confluency. In addition to NucBlue/NucGreen staining, 1 μM of staurosporine (apoptotic inducing reagent) solution was added to the culture medium. This potent reagent permeates cell membrane and disrupts protein kinase, cAMP, and lead to apoptosis in 4-6 hours. The cells were then measured by SLIM and epi-fluorescence microscopy. The cells were maintained in regular incubation condition (37° C. and 5% concentration of CO2) throughout the experiment. In addition, it is verified that the cells were not affected by necrosis and lytic cell death.
PICS on CHO cells and Evaluate the effect of lytic cell death: Before performing experiments on CHO cells, a preliminary study was conducted, as follows. Live cell cultures were prepared and split into the two groups. 1 μM of staurosporine was added into the medium of the experimental group, whereas the others were kept intact as control. Both control and experimental cells were measured with SLIM for 10 hours under regular incubation condition (37° C. and 5% concentration of CO2).
In test [2] the test system is CHO cells. The settings on record: 1 μM staurosporine added to culture medium; general description of the reagent; cited from earlier work.

For `CN[C@@H]1C[C@H]2O[C@@](C)([C@@H]1OC)n1c3ccccc3c3c4c(c5c6ccccc6n2c5c31)C(=O)NC4` [staurosporine], in the test with CHO cells [1], the “cell characteristics in SLIM (QPI) images versus untreated control” value was “cell volume decreased, and membrane ruptured or became detached”. Moreover, the time to apoptosis in the test on CHO cells [2] is 4 to 6 h.
